What was measured:
Acetylcholinesterase = Acetylcholinesterase (Electrophorus electricus, UniProt O42275); assay: Inhibition of Electrophorus electricus AChE using acetylthiocholine iodide as substrate incubated for 15 mins by Ellman's method
[1] = Antioxidant activity assessed as trolox equivalent of AAPH radical scavenging activity measured every min for 90 mins by ORAC-FL assay; assay type: functional
MAO-A = biological target: T1, MAO-A (Homo sapiens, UniProt P21397); assay: Inhibition of recombinant human MAOA at 10 uM using kynuramine as substrate preincubated for 30 mins followed by substrate addition and measured after 30 mins by fluorescence assay relative to control; settings: probe kynuramine, time 60 min
T1 sequence (P21397 whole entry): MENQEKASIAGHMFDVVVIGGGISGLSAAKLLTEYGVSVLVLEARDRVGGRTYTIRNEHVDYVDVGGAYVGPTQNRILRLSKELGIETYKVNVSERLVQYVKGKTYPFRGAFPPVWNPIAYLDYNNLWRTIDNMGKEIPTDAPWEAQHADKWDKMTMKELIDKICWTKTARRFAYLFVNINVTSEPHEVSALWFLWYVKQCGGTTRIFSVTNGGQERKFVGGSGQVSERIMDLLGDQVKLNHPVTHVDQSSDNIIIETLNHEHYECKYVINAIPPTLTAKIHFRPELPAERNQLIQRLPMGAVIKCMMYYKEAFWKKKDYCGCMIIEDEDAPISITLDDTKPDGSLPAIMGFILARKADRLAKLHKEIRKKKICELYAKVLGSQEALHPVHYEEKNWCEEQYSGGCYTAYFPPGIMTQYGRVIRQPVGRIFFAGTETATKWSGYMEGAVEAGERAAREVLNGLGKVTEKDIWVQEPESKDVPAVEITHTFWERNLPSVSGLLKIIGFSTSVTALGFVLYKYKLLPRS

[2] = biological target: T2, Amine oxidase [flavin-containing] B (Homo sapiens, UniProt P27338); assay: Inhibition of recombinant human MAOB at 10 uM using kynuramine as substrate preincubated for 30 mins followed by substrate addition and measured after 30 mins by fluorescence assay relative to control; settings: 0.5 h
T2 sequence (P27338 whole entry): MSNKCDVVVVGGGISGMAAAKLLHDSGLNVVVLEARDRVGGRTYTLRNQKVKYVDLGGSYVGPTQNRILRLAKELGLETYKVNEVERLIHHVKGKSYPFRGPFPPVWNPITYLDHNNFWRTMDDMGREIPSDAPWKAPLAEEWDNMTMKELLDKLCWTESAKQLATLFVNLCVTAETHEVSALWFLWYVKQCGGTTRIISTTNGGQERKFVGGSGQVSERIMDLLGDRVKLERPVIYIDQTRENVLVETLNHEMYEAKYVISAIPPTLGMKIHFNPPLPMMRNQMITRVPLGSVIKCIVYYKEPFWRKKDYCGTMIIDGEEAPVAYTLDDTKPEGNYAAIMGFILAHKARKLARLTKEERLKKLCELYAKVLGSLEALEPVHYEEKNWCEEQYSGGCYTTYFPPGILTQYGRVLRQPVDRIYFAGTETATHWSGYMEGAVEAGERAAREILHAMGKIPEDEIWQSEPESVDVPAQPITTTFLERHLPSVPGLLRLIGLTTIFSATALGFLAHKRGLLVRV

[3] = biological target: butyrylcholinesterase (BuChE) (Rattus norvegicus, UniProt Q9JKC1); assay: Inhibition of rat serum BuChE at 10 uM using butyrylthiocholine iodide as substrate incubated for 15 mins by Ellman's method relative to control; assay type: cell-free; settings: probe butyrylthiocholine iodide
[4] = biological target: Acetylcholinesterase (Electrophorus electricus) (UniProt O42275); assay: Inhibition of Electrophorus electricus AChE at 10 uM using acetylthiocholine iodide as substrate incubated for 15 mins by Ellman's method relative to control
[5] = biological target: Amyloid-beta precursor protein (Homo sapiens) (UniProt P05067); assay: Inhibition of amyloid beta (1 to 42) (unknown origin) self aggregation at 25 uM after 24 hrs by thioflavin-T fluorescence method relative to control
Plasma = assay: Antiplatelet activity in rat platelet-rich plasma assessed as inhibition of ADP-induced platelet aggregation at 33 uM preincubated for 30 mins followed by ADP addition measured within 5 mins by aggregometry relative to control; assay type: functional; settings: time 30-35 min

Sequence of Acetylcholinesterase (O42275 whole entry): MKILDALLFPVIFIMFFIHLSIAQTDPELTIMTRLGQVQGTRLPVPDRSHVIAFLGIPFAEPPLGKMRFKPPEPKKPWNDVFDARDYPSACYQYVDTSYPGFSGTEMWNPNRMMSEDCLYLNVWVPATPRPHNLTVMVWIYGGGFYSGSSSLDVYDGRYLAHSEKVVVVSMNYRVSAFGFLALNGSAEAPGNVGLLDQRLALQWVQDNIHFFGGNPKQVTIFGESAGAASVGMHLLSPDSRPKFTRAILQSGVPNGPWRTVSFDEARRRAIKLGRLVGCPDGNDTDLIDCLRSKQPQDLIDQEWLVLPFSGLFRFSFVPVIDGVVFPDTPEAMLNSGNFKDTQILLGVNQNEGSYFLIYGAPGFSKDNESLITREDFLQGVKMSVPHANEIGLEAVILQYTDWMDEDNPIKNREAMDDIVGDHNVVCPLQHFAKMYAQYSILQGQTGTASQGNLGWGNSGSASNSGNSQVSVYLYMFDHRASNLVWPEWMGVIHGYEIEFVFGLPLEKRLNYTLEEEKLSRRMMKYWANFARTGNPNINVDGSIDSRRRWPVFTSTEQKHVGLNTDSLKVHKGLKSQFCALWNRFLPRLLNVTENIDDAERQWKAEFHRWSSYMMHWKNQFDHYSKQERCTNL
Sequence of Amyloid-beta precursor protein (Homo sapiens) (P05067 whole entry): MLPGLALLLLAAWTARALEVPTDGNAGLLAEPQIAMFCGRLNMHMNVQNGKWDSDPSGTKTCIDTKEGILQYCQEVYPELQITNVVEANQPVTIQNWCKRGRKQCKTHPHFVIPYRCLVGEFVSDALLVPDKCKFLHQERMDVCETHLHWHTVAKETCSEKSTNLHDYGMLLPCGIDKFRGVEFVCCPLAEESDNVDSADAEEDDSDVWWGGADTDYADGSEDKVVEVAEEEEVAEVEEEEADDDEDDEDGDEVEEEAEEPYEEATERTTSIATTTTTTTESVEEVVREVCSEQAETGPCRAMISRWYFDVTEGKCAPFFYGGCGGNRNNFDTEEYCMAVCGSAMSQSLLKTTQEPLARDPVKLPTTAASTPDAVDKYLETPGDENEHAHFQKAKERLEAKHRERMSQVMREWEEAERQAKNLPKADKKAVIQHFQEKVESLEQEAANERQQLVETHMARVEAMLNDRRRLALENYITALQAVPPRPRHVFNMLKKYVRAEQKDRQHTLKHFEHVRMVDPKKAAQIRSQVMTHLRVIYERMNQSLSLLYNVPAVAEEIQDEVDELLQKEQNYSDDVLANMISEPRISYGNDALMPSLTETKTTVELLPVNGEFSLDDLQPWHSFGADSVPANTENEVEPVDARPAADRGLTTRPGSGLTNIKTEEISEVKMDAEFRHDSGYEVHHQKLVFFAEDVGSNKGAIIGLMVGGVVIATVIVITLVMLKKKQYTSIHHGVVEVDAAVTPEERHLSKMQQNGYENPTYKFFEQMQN
Sequence of Acetylcholinesterase (Electrophorus electricus) (O42275 24-633 limits assumed): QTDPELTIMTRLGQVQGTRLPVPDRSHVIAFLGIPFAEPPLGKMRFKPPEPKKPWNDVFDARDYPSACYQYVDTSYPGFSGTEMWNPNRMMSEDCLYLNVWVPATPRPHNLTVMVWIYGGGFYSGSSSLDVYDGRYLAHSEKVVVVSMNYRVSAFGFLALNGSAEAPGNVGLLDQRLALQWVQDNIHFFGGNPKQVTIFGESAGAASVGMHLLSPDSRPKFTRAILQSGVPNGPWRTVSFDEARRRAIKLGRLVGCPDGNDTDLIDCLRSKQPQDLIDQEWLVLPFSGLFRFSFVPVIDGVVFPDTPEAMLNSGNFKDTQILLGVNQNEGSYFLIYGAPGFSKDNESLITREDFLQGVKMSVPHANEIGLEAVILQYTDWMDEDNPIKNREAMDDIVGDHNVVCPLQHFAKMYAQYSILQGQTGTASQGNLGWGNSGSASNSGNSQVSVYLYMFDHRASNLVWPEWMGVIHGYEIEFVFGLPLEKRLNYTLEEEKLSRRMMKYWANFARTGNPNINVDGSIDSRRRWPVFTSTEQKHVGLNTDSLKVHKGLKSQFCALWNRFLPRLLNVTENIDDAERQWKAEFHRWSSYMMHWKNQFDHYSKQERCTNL
Sequence of butyrylcholinesterase (BuChE) (Q9JKC1 whole entry): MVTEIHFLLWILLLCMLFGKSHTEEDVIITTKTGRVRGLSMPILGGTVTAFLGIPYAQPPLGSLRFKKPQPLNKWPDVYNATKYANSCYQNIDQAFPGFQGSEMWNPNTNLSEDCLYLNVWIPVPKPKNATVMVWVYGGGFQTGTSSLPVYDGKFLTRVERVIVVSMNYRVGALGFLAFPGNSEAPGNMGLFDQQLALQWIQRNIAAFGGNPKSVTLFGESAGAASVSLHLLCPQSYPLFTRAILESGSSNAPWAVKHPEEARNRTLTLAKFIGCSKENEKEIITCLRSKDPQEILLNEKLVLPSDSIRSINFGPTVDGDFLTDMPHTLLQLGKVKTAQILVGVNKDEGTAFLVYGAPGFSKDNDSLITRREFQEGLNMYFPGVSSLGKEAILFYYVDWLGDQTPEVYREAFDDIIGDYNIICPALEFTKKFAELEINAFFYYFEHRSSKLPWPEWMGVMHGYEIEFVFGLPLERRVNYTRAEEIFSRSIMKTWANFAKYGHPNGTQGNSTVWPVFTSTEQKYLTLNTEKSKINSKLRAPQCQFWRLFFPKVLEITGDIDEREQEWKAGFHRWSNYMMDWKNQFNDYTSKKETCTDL

COc1cc2c(cc1OC)/C(=C\c1ccc(N3CCN(C)CC3)c(O)c1)OC2=O
IC50 (Acetylcholinesterase): 2630 nM | Activity [1]: 2.36 equiv | inhibition at 0.5 h, 10 µM (MAO-A): 5% | inhibition at 10 µM [2]: 31.4% | inhibition at […], 10 µM [3]: 5.5%

COc1cc2c(cc1OC)C(Cc1cccc(O)c1N1CCCC1)OC2=O (stereo unspecified)
inhibition [4]: 19.4% | Activity [1]: 1.86 equiv | inhibition at 0.5 h, 10 µM (MAO-A): 10.5% | inhibition at 10 µM [2]: 11.3% | inhibition at […], 10 µM [3]: 7.1%

COc1cc2c(cc1OC)/C(=C\c1ccc(N3CCOCC3)c(O)c1)OC2=O
inhibition [5]: 24.9% | IC50 (Acetylcholinesterase): 2430 nM | Activity [1]: 1.76 equiv | inhibition at 0.5 h, 10 µM (MAO-A): 18.7% | inhibition at 10 µM [2]: 13% | inhibition at […], 10 µM [3]: 5.7%

COc1cc2c(cc1OC)/C(=C/c1cccc(O)c1N1CCCC1)OC2=O
IC50 (Acetylcholinesterase): 8860 nM | Activity [1]: 2.18 equiv | inhibition at 0.5 h, 10 µM (MAO-A): < 5% | inhibition at 10 µM [2]: 10.3% | inhibition at […], 10 µM [3]: 8.8%

COc1cc2c(cc1OC)/C(=C/c1cccc(O)c1N1CCN(C)CC1)OC2=O
inhibition [4]: 22.3% | Activity [1]: 2.09 equiv | inhibition at 0.5 h, 10 µM (MAO-A): < 5% | inhibition at 10 µM [2]: 29.5% | inhibition at […], 10 µM [3]: < 5%

COc1cc2c(cc1OC)/C(=C\c1cccc(O)c1N1CCN(C)CC1)OC2=O
IC50 (Acetylcholinesterase): 12400 nM | Activity [1]: 1.38 equiv | inhibition at 0.5 h, 10 µM (MAO-A): 10% | inhibition at 10 µM [2]: 13.2% | inhibition at […], 10 µM [3]: 5.9%

COc1cc2c(cc1OC)/C(=C/c1cccc(O)c1N1CCCCC1)OC2=O
inhibition [4]: 41.1% | Activity [1]: 2.08 equiv | inhibition at 0.5 h, 10 µM (MAO-A): < 5% | inhibition at 10 µM [2]: 20.3% | inhibition at […], 10 µM [3]: 6.7%

CCN(CC)c1c(O)cccc1CC1OC(=O)c2cc(OC)c(OC)cc21 (stereo unspecified)
inhibition [4]: 16.3% | Activity [1]: 2.78 equiv | inhibition at 0.5 h, 10 µM (MAO-A): < 5% | inhibition at 10 µM [2]: < 5% | inhibition at […], 10 µM [3]: 12.5%

CCN(CC)c1ccc(/C=C2\OC(=O)c3cc(OC)c(OC)cc32)cc1O
inhibition [5]: 28.6% | IC50 (Acetylcholinesterase): 72 nM | Activity [1]: 2.7 equiv | inhibition at 33 µM (Plasma): 12.4% | inhibition at 0.5 h, 10 µM (MAO-A): < 5% | inhibition at 10 µM [2]: 39.4% | inhibition at […], 10 µM [3]: < 5%

COc1cc2c(cc1OC)C(Cc1cccc(O)c1)OC2=O (stereo unspecified)
inhibition [4]: 14.4% | Activity [1]: 0.95 equiv | inhibition at 0.5 h, 10 µM (MAO-A): 7.9% | inhibition at 10 µM [2]: 6.2% | inhibition at […], 10 µM [3]: < 5%

COc1cc2c(cc1OC)C(Cc1ccc(N3CCN(C)CC3)c(O)c1)OC2=O (stereo unspecified)
inhibition [4]: 42.4% | Activity [1]: 2.09 equiv | inhibition at 0.5 h, 10 µM (MAO-A): 5.6% | inhibition at 10 µM [2]: 17% | inhibition at […], 10 µM [3]: < 5%

CCN(CC)c1c(O)cccc1/C=C1/OC(=O)c2cc(OC)c(OC)cc21
inhibition [4]: 46.9% | Activity [1]: 2.53 equiv | inhibition at 0.5 h, 10 µM (MAO-A): < 5% | inhibition at 10 µM [2]: 44.6% | inhibition at […], 10 µM [3]: 31.4%

COc1cc2c(cc1OC)C(Cc1cccc(O)c1N1CCN(C)CC1)OC2=O (stereo unspecified)
inhibition [4]: 14% | Activity [1]: 2.13 equiv | inhibition at 0.5 h, 10 µM (MAO-A): < 5% | inhibition at 10 µM [2]: < 5% | inhibition at […], 10 µM [3]: < 5%

COc1cc2c(cc1OC)C(Cc1cccc(O)c1N1CCCCC1)OC2=O (stereo unspecified)
inhibition [4]: 12.6% | Activity [1]: 1.44 equiv | inhibition at 0.5 h, 10 µM (MAO-A): < 5% | inhibition at 10 µM [2]: 15.6% | inhibition at […], 10 µM [3]: < 5%

CCN(CC)c1c(O)cccc1/C=C1\OC(=O)c2cc(OC)c(OC)cc21
inhibition [4]: 38% | Activity [1]: 2.87 equiv | inhibition at 0.5 h, 10 µM (MAO-A): < 5% | inhibition at 10 µM [2]: 44.9% | inhibition at […], 10 µM [3]: < 5%

CCN(CC)c1ccc(/C=C2/OC(=O)c3cc(OC)c(OC)cc32)cc1O
inhibition [5]: 26.1% | IC50 (Acetylcholinesterase): 26 nM | Activity [1]: 4.48 equiv | inhibition at 33 µM (Plasma): < 5% | inhibition at 0.5 h, 10 µM (MAO-A): 48% | inhibition at 10 µM [2]: 49% | inhibition at […], 10 µM [3]: 5.7%

COc1cc2c(cc1OC)/C(=C\c1cccc(O)c1N1CCCC1)OC2=O
IC50 (Acetylcholinesterase): 19500 nM | Activity [1]: 2.46 equiv | inhibition at 0.5 h, 10 µM (MAO-A): < 5% | inhibition at 10 µM [2]: 12.5% | inhibition at […], 10 µM [3]: 49.6%

COc1cc2c(cc1OC)/C(=C/c1cccc(O)c1N1CCOCC1)OC2=O
inhibition [4]: 15.1% | Activity [1]: 1.48 equiv | inhibition at 0.5 h, 10 µM (MAO-A): 6.6% | inhibition at 10 µM [2]: 27.9% | inhibition at […], 10 µM [3]: < 5%

COc1cc2c(cc1OC)C(Cc1cccc(O)c1N1CCOCC1)OC2=O (stereo unspecified)
inhibition [4]: 11% | Activity [1]: 2.28 equiv | inhibition at 0.5 h, 10 µM (MAO-A): < 5% | inhibition at 10 µM [2]: 19.1% | inhibition at […], 10 µM [3]: < 5%

COc1cc2c(cc1OC)/C(=C\c1ccc(N3CCCC3)c(O)c1)OC2=O
inhibition [5]: 30.6% | IC50 (Acetylcholinesterase): 660 nM | Activity [1]: 2.82 equiv | inhibition at 33 µM (Plasma): 9.8% | inhibition at 0.5 h, 10 µM (MAO-A): 32% | inhibition at 10 µM [2]: 27.8% | inhibition at […], 10 µM [3]: 16.5%

COc1cc2c(cc1OC)/C(=C\c1cccc(O)c1N1CCCCC1)OC2=O
inhibition [4]: 42.8% | Activity [1]: 2.58 equiv | inhibition at 0.5 h, 10 µM (MAO-A): < 5% | inhibition at 10 µM [2]: 24.2% | inhibition at […], 10 µM [3]: 16.4%

COc1cc2c(cc1OC)/C(=C\c1cccc(O)c1N1CCOCC1)OC2=O
inhibition [4]: 40.8% | Activity [1]: 2.06 equiv | inhibition at 0.5 h, 10 µM (MAO-A): < 5% | inhibition at 10 µM [2]: 10.1% | inhibition at […], 10 µM [3]: 11.3%

COc1cc2c(cc1OC)/C(=C/c1ccc(N3CCCC3)c(O)c1)OC2=O
inhibition [5]: 23% | IC50 (Acetylcholinesterase): 31 nM | Activity [1]: 4.1 equiv | inhibition at 33 µM (Plasma): < 5% | inhibition at 0.5 h, 10 µM (MAO-A): 5.1% | inhibition at 10 µM [2]: 28.3% | inhibition at […], 10 µM [3]: 9.4%

COc1cc2c(cc1OC)/C(=C/c1ccc(N3CCOCC3)c(O)c1)OC2=O
inhibition [5]: 26.7% | IC50 (Acetylcholinesterase): 9680 nM | Activity [1]: 1.77 equiv | inhibition at 0.5 h, 10 µM (MAO-A): 5.3% | inhibition at 10 µM [2]: 50.2% | inhibition at […], 10 µM [3]: < 5%

CC(=O)Oc1ccccc1C(=O)O [ASPIRIN]
inhibition at 33 µM (Plasma): 12.4%

From ChEMBL document CHEMBL4706703, “Novel 3-benzylidene/benzylphthalide Mannich base derivatives as potential multifunctional agents for the treatment of Alzheimer's disease” (Bioorg Med Chem, 2021)
